Columns and labels:
[1] = test system: Nalm-6 cells; assay: NAD assay in Nalm-6 cells treated with FK866; assay type: cell-based; conditions: 1 nM, 1, 3 and 6 hours
Method: (§1) NAMPT is the rate-limiting enzyme in the NAD^+ biosynthetic pathway. Thus, NAD^+ levels in the stimulated cells were measured using a standard NAD^+ assay (Biovision NADH/NAD Quantification Kit).
(§2) Nalm-6 cells were treated for 1, 3, and 6 hours with 1 nM FK866 (Sigma) and NAD^+ formation was measured using NAD assay as described. […] To measure the effect of NAD^+ depletion following FK866 treatment on Nalm-6 cells, apoptosis and viability were measured. Nalm-6 cells were treated for 48 hours with 1 nM FK866 and apoptosis was measured using FACS.

[2] = test system: Nalm-6 cells; assay: Apoptosis by FACS in Nalm-6 cells treated with FK866; assay type: cell-based; conditions: 1 nM, 48 hours
Method: as §2

[3] = test system: Nalm-6 cells; assay: Sensitivity to FK866 (NAD+ levels) of NALM-6 cells transfected with miR-451 mimic or inhibitor; assay type: cell-based; conditions: 3 hours
Method: The sensitivity of NALM-6 cells to the NAMPT inhibitor FK866 was measured in cells following transfection with miR-451 mimic or miR-451 inhibitor (FIG. 8). The sensitivity was measured by levels of NAD^+. […] Thus, miR-451 expression can distinguish between patients that could benefit from treatment with NAMPT inhibitors, such as FK866.

[4] = test system: NAMPT; assay: NAMPT expression by FACS after TPA treatment; assay type: cell-based; conditions: Peripheral blood cells, 50 ng/ml TPA, 24 hours
Method: Studies by several investigators have shown that 12-0-tetradecanoylphorbol-13-acetate (TPA) (Sigma) is an extraordinarily potent tumor promoter and stimulates protein kinase C (PKC). Since NAMPT is over-expressed in several tumors, it was believed that it might be possible to achieve NAMPT stimulation by TPA treatment. To test this hypothesis. Peripheral blood cells were treated with 50 ng/ml TPA for 24 hours and NAMPT expression was measured by FACS using a specific NAMPT antibody.

[5] = test system: cellular NAD^+ levels; assay: NAD+ assay in TPA stimulated cells; assay type: cell-based
Method: as §1

[6] = test system: Nalm-6 cells; assay: Tumor growth of transfected Nalm-6 cells injected s.c. into NOD/SCID mice; assay type: in vivo
Method: To further study the putative tumor-suppressive function of hsa-miR-451 in vivo, 10^7 viable Nalm-6 untransfected cells, transfected in vitro with miR-451, or transfected with scrambled control nucleic acid, were injected s.c. into the right flanks of 6-week-old female NOD/SCID mice. […] On day 26, the median tumor volume in the scrambled control mice and the miR-451 mice were 204.69 mm^3 (SE=63.96) and 23.32 mm^3 (SE=13.12) respectively (P=0.019). At the end of the experiment mice were sacrificed and the tumors were weighted. The median tumor weight in the scrambled control mice and the miR-451 mice were 0.0966 gr (SE=0.040) and 0.0159 gr (SE=0.0009) respectively (P=0.046) (FIG. 4C).

[7] = test system: NAMPT; assay: NAMPT expression by FACS in transfected Nalm-6 cells; assay type: cell-based; conditions: P<0.05
Method: To determine the effects of miR-451 on NAMPT expression, Nalm-6 cells were transfected with miR-451 mimic (SEQ ID NO: 2) and miR-451 inhibitor (GeneCopoeia miArrest miR-451, an inhibitor expression clone) and NAMPT expression was measured by FACS analysis using a specific NAMPT antibody.

[8] = test system: NAMPT 3′-UTR; assay: Luciferase reporter assay with NAMPT 3′-UTR; assay type: cell-based; conditions: P<0.05
Method: To confirm that NAMPT is a direct target of miR-451, luciferase reporter vectors were generated that contained the NAMPT 3′-UTR (LightSwitch NAMPT 3′UTR Reporter GoClone). Luciferase reporter assays (LightSwitch Luciferase Assay; SwitchGear) were then performed in the presence and absence of miR-451mimic and inhibitor to determine whether NAMPT was a direct downstream target of miR-451. The relative luciferase activity of the reporter that contained NAMPT 3′-UTR was decreased in 80% when miR-451 mimics were transfected.

[9] = test system: SOCS4; assay: SOCS4 protein levels by Western blotting in transfected Nalm6 cells; assay type: cell-based; conditions: Nalm6 cell line, over-expression of miR-1290, Western blotting
Method: Following transfection of miR-1290 mimic (SEQ ID NO: 4, over-expression), miR-1290 inhibitor (SEQ ID NO: 5, silencing), and miR-scramble (control), into the Nalm6 cell line, the protein levels of SOCS4 were measured using Western blotting (p=0.029; FIG. 9). The values shown in the figure are mean±S.D from 3 experiments.

[10] = test system: Phosphorylated STAT5; assay: Phospho-STAT5 levels by FACS in transfected NALM-6 cells; assay type: cell-based; conditions: NALM-6 cell line
Method: Phosphorylated STAT5 (phospho-STAT5) levels were measured by FACS analysis following transfection of miR-1290 mimic (overexpression) into NALM-6 cell line. An increase of 50% in the levels of pSTAT5 protein is evident in the cells expressing high levels of miR-1290 (FIG. 11).

O=C(/C=C/c1cccnc1)NCCCCC1CCN(C(=O)c2ccccc2)CC1 [FK866]
NAD^+ detection following treatment [1]: gradual decrease | apoptosis [2]: induced apoptosis | change in NAD+ production after FK866 treatment compared to Nalm-6/miR-NC ([3]; Nalm-6/miR-451 cells (miR-451 mimic)): less change | change in NAD+ production after FK866 treatment compared to Nalm-6/miR-NC ([3]; Nalm-6/miR-inhibitor cells, p=0.003): more than 5 fold

CCCCCCCCCCCCCC(=O)O[C@@H]1[C@@H](C)[C@@]2(O)[C@@H](C=C(CO)C[C@]3(O)C(=O)C(C)=C[C@@H]23)[C@H]2C(C)(C)[C@]12OC(C)=O [TPA, 12-0-tetradecanoylphorbol-13-acetate]
increase in NAMPT expression levels [4]: more than 4 folds | cellular NAD^+ levels higher [5]: 2 fold

miR-451 mimic: miR-451 mimic (SEQ ID NO: 2) transfected into Nalm-6 cells by electroporation (AAACCGUUACCAUUACUGAGUU; listed as RNA, chemistry not given here; listed as Homo sapiens)
tumor growth ([6]; NOD/SCID mice, Nalm-6/miR-451 cells s.c., versus scrambled miR control): significantly decreased tumor growth | median tumor volume ([6]; day 26, NOD/SCID mice, Nalm-6 cells transfected in vitro, P=0.019 vs scrambled control): 23.32 mm^3 | median tumor weight ([6]; end of the experiment, NOD/SCID mice, P=0.046 vs scrambled control): 0.0159 gr | NAMPT protein expression decreased by [7]: 46% | relative luciferase activity of NAMPT 3′-UTR reporter decreased [8]: 80%

miR-1290 mimic: miR-1290 mimic (SEQ ID NO: 4, over-expression) transfected into Nalm6 cell line (UGGAUUUUUGGAUCACCUGAUCCAAAAAU; listed as RNA, chemistry not given here)
SOCS4 protein levels [9]: down-regulation | increase in the levels of pSTAT5 protein [10]: 50%
